Assay results as given in PMC4919643, “Intestinally-targeted TGR5 agonists equipped with quaternary ammonium have an improved hypoglycemic effect and reduced gallbladder filling effect” (Scientific Reports, 2016).
Read-outs that look alike come from different tables or passages of the source.

What was measured:
ICR mice = assay: Oral glucose tolerance test (OGTT) in ICR mice; assay type: in vivo, mouse
Method: Blood glucose levels were measured berefore and after glucose loading. *p < 0.05, **p < 0.01 vs. control. Error bar indicateds SEM (standard error of the mean). […]
Oral glucose tolerance test (OGTT) and gallbladder filling assay in ICR mice. 100 […]
mice (n = 7-8) 90 min prior to the oral glucose load (4 g/kg). Blood glucose levels were measured via blood drops obtained by clipping the tail of the mice using an Accu-Chek Advantage II Glucose Monitor (Roche, Indianapolis, IN, USA) before compound dosing and 0, 15, 30, 60, and 120 min after the glucose load. The area under the concentration−time curve from 0 to 120 min (AUC0−120 min, Glu) of blood glucose after the glucose load was calculated by the trapezoidal rule. […]

ob/ob mice = assay: Gallbladder filling assay in ob/ob mice; assay type: in vivo, mouse; conditions: once a day oral dose 100 mg/kg (single dose)
Method: Figure 8 (A) Relative gallbladder area and (B) relative bile weight after once a day oral dose or 3-day treatment. […] 1 h after the final dose, mice were re-fed for 3 h and then the gallbladder was removed and the area measured using a vernier caliper. The relative gallbladder area was calculated from the length multiplied by the width of the gallbladder. Bile weight was measured using analytical balances. **p < 0.01; ***p < 0.001. Error bar indicates SEM.
Acute efficacy in ob/ob mice. 7-week-old ob/ob mice (male) were divided into three groups (n = 8) based on 2 h-fasted blood glucose. […]
mg/kg) and 0.25% CMC (control) was then orally administered to 2 h-fasted mice, and blood glucose was measured at 2, 4, 6, 8, 10, and 24 h after dosing. […]
then divided into 3 subgroup of different time point (n = 8-9 each subgroup). […] Concentrations of active GLP-1[7-36 amide] in the serum were measured using ELISA kit from Linco Research. […]
administered to 12 h-fasted ob/ob mice (n = 3 per time point). […] After centrifugation at 11000 rpm for 5 mins, the supernatant was analyzed by LC-MS/MS. […]
administered orally to overnight-fasted ob/ob mice (male, n = 3-6). 1 h after dosing, mice were refed for 3 hours, and then gallbladders were removed, and the area was measured using vernier caliper. The relative gallbladder area was calculated from the length multiplied by the width of the gallbladder. […]

[1] = Drug levels in plasma, bile and gallbladder tissue after 3 days oral administration to ob/ob mice; assay type: in vivo; conditions: male, mouse, after the 3-day gallbladder filling assay, 100 mg/kg p.o.
Description: Drug levels test in plasma, bile, and gallbladder tissue after 3 days oral administration to ob/ob mice. Plasma, bile, and gallbladder were taken from experiments performed in accordance with the guidelines for the use of experimental animals in the Shanghai Laboratory Animal Administration (Shanghai, China) after three days treatment of 26a to ob/ob mice. Blood samples were collected through cardiac puncture into heparinized tubes, and plasma was harvested by centrifugation. Bile and gallbladder tissue were collected from each mouse after blood withdrawal. To 10 mg of gallbladder was added 100 μL of MeOH, and the mixture was homogenized. A 15 μL aliquot of bile samples was diluted with 100 μL of MeOH and then mixed. Plasma, bile, and tissue homogenate were stored at −20 °C. These samples were protein precipitated with MeCN using clopidogrel as the internal standard, and the supernatant was injected onto a LC-MS/MS system for the quantification of 26a. Chromatographic separation was […]
0.5 mL min−1 using ternary mobile phase: A (H2O with 5 mM ammonium acetate and 0.5% TFA); B(MeCN: H2O = 95:5 with 0.1% TFA ); C (MeOH with 1% TFA). The MS/MS detection was carried out in MRM mode using a positive electrospray ionization […]
Long-term study of 26a in ob/ob mice. Three groups of ob/ob mice (male) was orally […]
At day 0 (before dosing), 4, 8, 12 and 18, non-fasted blood glucose was measured before dosing. Mice were fasted for 6 h after dosing and then fasted blood glucose was measured.
The serum level of HbA1c was measured at day 0 (before dosing) and 18 by Adicon biochemical analyzer. The body weight of each mouse was recorded every day. The triglyceride and total cholesterol level was measured after the final dose.
Statistical analysis. All data were expressed as the mean ± SEM or mean ± SD. For the experiment including multiple time points, one-way ANOVA statistical analysis was used; otherwise, unpaired Student’s t test was used. P < 0.05 was considered to be statistically significant.

mouse TGR5 = molecular target: T1, mouse TGR5 (Mus musculus, UniProt Q80SS6); assay: In vitro TGR5 reporter gene assay (mTGR5/CRE/HEK293)
T1 sequence (Q80SS6 1-329): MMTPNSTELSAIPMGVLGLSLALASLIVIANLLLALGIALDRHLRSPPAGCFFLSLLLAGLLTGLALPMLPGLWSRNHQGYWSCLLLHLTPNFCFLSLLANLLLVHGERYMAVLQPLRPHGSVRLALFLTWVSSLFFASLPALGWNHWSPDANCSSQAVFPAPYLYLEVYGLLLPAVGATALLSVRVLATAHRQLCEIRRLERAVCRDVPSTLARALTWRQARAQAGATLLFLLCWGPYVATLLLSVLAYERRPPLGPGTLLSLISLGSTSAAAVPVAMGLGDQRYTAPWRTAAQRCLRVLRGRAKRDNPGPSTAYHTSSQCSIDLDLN

Q: Which results are given for CN(CC[N+](C)(C)C)C(=O)CCc1cc(Cl)c(Oc2ccsc2C(=O)N2CCN(C3CC3)c3ccccc32)cc1Cl [Compound 26a]?
A: AUC0–120 min of blood glucose, signed change vs control (OGTT, Fig. 3B) (ICR mice; 100 mg/kg p.o.): -18%; decrease of blood glucose AUC vs control (OGTT) (ICR mice; 100 mg/kg p.o. 1.5 h before glucose 4 g/kg): 18%; bile weight vs control (ob/ob mice): did not increase gallbladder area or bile weight significantly; gallbladder area vs control (ob/ob mice): did not increase gallbladder area or bile weight significantly; concentration at 3 days ([1]; read-out: concentration in gallbladder): 112 ± 30 ng/mL; concentration at 3 days ([1]; bile, read-out: concentration in bile): 7800 ± 1850 ng/mL; concentration at 3 days ([1]; plasma, read-out: concentration in plasma): 18 ± 3 ng/mL; EC50 (mouse TGR5): 0.71 nM
